Measured values published in patent US7935525B2, “Inhibition of ATF2 activity to treat cancer” (Mount Sinai School of Medicine, priority 2001, dated 2011).
No end group written: not given here.

Columns and labels:
[1] = test system: LU1205 cells; assay: Apoptosis by FACS (hypodiploid fraction); type: cell-based, human; design: Adriamycin induced programmed cell death, increase compared with control: dose or concentration left out as unconfirmed
Experimental: (§1) Treatment and apoptosis studies of stably transfected melanoma cells. Cells were exposed to UVC at 75 J/m^2 as previously described (Ronai, Z., et al., Oncogene 1998; 16:523-531). SB203580 (1-10 μM) (Calbiochem®, San Diego, Calif.), NCS (50-100 ng/ml) and mitomycin C (MMC) (0.2-1 μM) were used to treat melanoma cells. Flow cytometric analysis was performed on a FACSCalibur™ flow cytometer (Becton Dickinson) using CellQuest™ software as described previously (Nicoletti et al., J. Immunol. Methods 1991; 139:271-279). Cells were pelleted and resuspended in 0.5 ml of hypotonic buffer with 0.1% Triton X-100 containing PI (40 μg/ml) and DNase-free RNase A (1 mg/ml). Cells were incubated at 37° C. for 30 min and analyzed on a FACSCalibur™ flow cytometer (Becton Dickinson). The percentage of cells to the left of the diploid G0/1 peak, characteristic of hypodiploid cells that have lost DNA, was defined as the percentage of apoptotic cells. Analysis was performed with light scatter gating. Surface expression of Fas was determined using anti-Fas-PE antibody (PharMingen® CA) and flow cytometric analysis. Cell surface expression is measured as mean fluorescence intensity (MFI).

[2] = test system: human melanocytes (FOM71); assay: Apoptosis by FACS (hypodiploid fraction); type: cell-based; conditions: melanocytes; SB203580 or NCS (100 ng/ml); 36 h
Experimental: as §1

[3] = test system: LU1205 tumor cells; assay: Growth of transplanted LU1205 tumors in mice; type: in vivo; conditions: single agent: inhibitor injected into tumor, or peptide expressed in tumor cells
Experimental: (§2) Tumor growth and metastasis evaluation in vivo. Cell lines established in culture to constitutively or inducibly express the peptide were injected into mice subcutaneously (S.C.). LU1205, FEMX and SW-1 cells that expressed control or peptide II were trypsinized, resuspended in PBS and injected SC (1×10^6) into 6-7 week old mice in the lower flank. When the tumor reached the size of about 50 mm^3, 5 μM of SB203580 was injected into four areas of the LU1205 tumors every 4 days during a 2-week period. For FEMX tumors UCN-01 (2.5 mg/kg) was fed by gavage twice a day, three times per week for a total of 2 weeks. Tumor growth was monitored every two days. SW-1 cells expressing peptide II under tet-inducible vector were injected SC (1×10^6). When tumors reached a size of about 50 mm^3, the mice received doxycycline in their drinking water ([…]) for a total of 2-4 weeks. At the end of the experiment, the tumors were excised and weighed. The lungs and other organs were subjected to histopathological examination to detect metastatic lesions.

[4] = test system: FEMX tumor cells; assay: Growth of transplanted FEMX tumors in mice; type: in vivo; conditions: single agent: UCN-01 by gavage, or peptide expressed in tumor cells
Experimental: as §2

[5] = test system: FEMX melanoma cell line; assay: Colony forming efficiency (CFE) resistance assay; type: cell-based, human; conditions: peptide-expressing FEMX vs neo control; UV-treatment; 14 days
Experimental: (§3) Radiation resistance. Cells (500 or 1500 per well) were plated in triplicates on 6 well plates, 24 h before treatment (Ronai et al., Oncogene 1998; 16:523-531). In all cases, plating efficiency was pre-determined so that number of cell plated was normalized respectively. Colonies (greater than 50 cells per clone) were stained with crystal violet solution (3% in 10% methanol and PBS), 14 days After treatment. % of CFE in each treatment group was calculated based on total CFE formed in the respective controls (100%).

[6] = test system: LU1205 melanoma cell line; assay: Colony forming efficiency (CFE) resistance assay; type: cell-based, human
Experimental: as §3

[7] = test system: ATF2; assay: ATF2 phosphorylation in peptide-expressing melanoma cells; type: cell-based, human; conditions: UV-treated; vs control vector cells
[8] = test system: 293T human kidney embryonic cells; assay: Apoptosis by FACS (hypodiploid fraction); type: cell-based; conditions: peptide-expressing 293T; normal growth conditions
Experimental: [Worded in the source for another cell line; this cell line is reported under the same test.] as §1

[9] = test system: Fas; assay: Cell surface expression of Fas by FACS; type: cell-based, human; conditions: peptide-expressing LU1205; control 122
Experimental: as §1

[10] = test system: WM1552 early-phase melanoma cell line; assay: Apoptosis by FACS (hypodiploid fraction); type: cell-based, human; conditions: peptide-expressing WM1552; UV-C 75 J/m2; 36 h
Experimental: as §1

[11] = test system: FEMX cells; assay: Apoptosis by FACS (hypodiploid fraction); type: cell-based, human; conditions: peptide-expressing FEMX; UV-C 75 J/m2; 36 h; neo control 13%
Experimental: as §1

[12] = test system: MCF7 breast cancer-derived cell line; assay: Apoptosis by FACS (hypodiploid fraction); type: cell-based, human; conditions: peptide-expressing MCF7; UV; 36 h
Experimental: [Worded in the source for another cell line; this cell line is reported under the same test.] as §1

[13] = test system: Adriamycin-resistant MCF7 cell line (MCF7-Adr); assay: Apoptosis by FACS (hypodiploid fraction); type: cell-based, human; conditions: peptide-expressing MCF7-Adr; neo controls 3-fold; 36 h
Experimental: [Worded in the source for another cell line; this cell line is reported under the same test.] as §1

[14] = test system: ATF2 transcriptional output; assay: Jun-2-Luc activities in peptide IV-expressing cells; type: cell-based
[15] = test system: Fas promoter; assay: Fas promoter activity (-460 Fas promoter region); type: cell-based, human; conditions: peptide-expressing LU1205
[16] = test system: JNK; assay: GST binding assay; conditions: GST pull-down; greater binding in extracts of UV-treated cells
Experimental: (§4) Electrophoretic mobility shift assays were performed as described. (Ivanov and Ronada, J Biol Chem 1999; 274(20):14079-89). GST binding assays were performed with GST-peptide II as described (Adler et al., Proc Natl Acad Sci USA 1995; 92 10585-9). SW1 cells expressing control vector or peptide II were subjected to FACS analysis following their incubation with antibodies to the cell surface receptor of FAS as described above.

[17] = test system: ATF2; assay: GST binding assay; conditions: GST pull-down
Experimental: as §4

Molecule: COc1cccc2c1C(=O)c1c(O)c3c(c(O)c1C2=O)C[C@@](O)(C(=O)CO)C[C@@H]3O[C@H]1C[C@H](N)[C@H](O)[C@H](C)O1 [Adriamycin®, reference compound]
- Adriamycin induced programmed cell death, increase compared with control ([1]; LU1205, ADR alone): 2 fold

Molecule: C[S+]([O-])c1ccc(-c2nc(-c3ccncc3)c(-c3ccc(F)cc3)[nH]2)cc1 (centres unmarked) [SB203580, reference compound]
- changes in degree of apoptosis [2]: neither NCS nor SB203580 elicited any significant changes
- tumor cell growth [3]: almost no effect

Molecule: CN[C@@H]1C[C@H]2O[C@@](C)([C@@H]1OC)n1c3ccccc3c3c4c(c5c6ccccc6n2c5c31)C(=O)N[C@H]4O [UCN-01, 7-hydroxystaurosporine, reference compound]
- tumor cell growth [4]: little effect, if any

Molecule: neocarzinostatin [NCS]
- changes in degree of apoptosis [2]: neither NCS nor SB203580 elicited any significant changes

Molecule: peptide IV: ATF2 peptide of amino acid residues 150-200, expressed from pcDNA3 with HA-penetratin tag (EVPLAQTAQPTSAIVRPASLQVPNVLLTSSDSSVIIQQAVPSPTSSTVITQ; not fully specified; also: HA-penetratin tag, position not given here; UniProt P15336 150-200, looked up, fragment)
- increase in the % of CFE [5]: ≤ 2.5 fold
- increase in the resistance to NCS (CFE) ([6]; peptide-expressing LU1205, low dose of NCS): ~2 fold
- increase in the % of CFE ([6]; peptide-expressing LU1205 vs neo control, UV-treatment, 14 days): ≤ 2.5 fold
- ATF2 phosphorylation after UV-treatment [7]: higher degree of increase in ATF2 phosphorylation
- increase in the degree of basal apoptosis [8]: 15 fold
- increase in degree of apoptosis over control neo cells given Adriamycin and verapamil ([1]; peptide-expressing LU1205, Adriamycin + verapamil): 70%
- apoptotic fraction of UV-treated cells ([1]; peptide-expressing LU1205, UV-C 75 J/m2, 36 h, neo control 15%): 10%
- increase in the degree of cell death ([1]; peptide-expressing LU1205, higher doses (10 μM) of SB203580, 36 h): 2 fold
- increase in cell death ([1]; peptide-expressing LU1205, low doses of SB203580, 36 h): did not alter the degree of cell death
- cell surface expression of Fas, mean fluorescence intensity [9]: did not cause major changes
- sensitization to UV-induced apoptosis [10]: did not cause higher level of apoptosis
- apoptotic fraction of UV-treated cells [11]: 8%
- decrease in the degree of apoptosis after UV-treatment compared with MCF7 neo control cells [12]: 5 fold
- increase in apoptosis following UV-treatment [13]: greater than 4 fold
- transcriptional output measured via Jun-2-Luc activities [14]: elevated transcriptional output
- Fas promoter mediated transcription [15]: decrease in Fas promoter mediated transcription

B1: amino acid residues 1-115: larger region of the amino-terminal ATF2 domain (amino acid residues 1-115) (protein, UniProt P15336 1-115, looked up, fragment)
chain: MKFKLHVNSARQYKDLWNMSDDKPFLCTAPGCGQRFTNEDHLAVHKHKHEMTLKFGPARNDSVIVADQTPTPTRFLKNCEEVGLFNELASPFENEFKKASEDDIKKMPLDLSPLA
- association with JNK [16]: equivalent association
- association with ATF2 [17]: weaker association
